≈ marks a conversion by molar mass, not a printed value.
Experiments:
[1] = biological target: Type-1 angiotensin II receptor (Homo sapiens) (UniProt P30556); assay: Inhibition of Angiotensin-2 receptor (unknown origin)
[2] = biological target: T1, Tyrosine-protein phosphatase non-receptor type 1 (Homo sapiens, UniProt P18031); assay: Inhibition of PTP1B (unknown origin)
T1 sequence (P18031 whole entry): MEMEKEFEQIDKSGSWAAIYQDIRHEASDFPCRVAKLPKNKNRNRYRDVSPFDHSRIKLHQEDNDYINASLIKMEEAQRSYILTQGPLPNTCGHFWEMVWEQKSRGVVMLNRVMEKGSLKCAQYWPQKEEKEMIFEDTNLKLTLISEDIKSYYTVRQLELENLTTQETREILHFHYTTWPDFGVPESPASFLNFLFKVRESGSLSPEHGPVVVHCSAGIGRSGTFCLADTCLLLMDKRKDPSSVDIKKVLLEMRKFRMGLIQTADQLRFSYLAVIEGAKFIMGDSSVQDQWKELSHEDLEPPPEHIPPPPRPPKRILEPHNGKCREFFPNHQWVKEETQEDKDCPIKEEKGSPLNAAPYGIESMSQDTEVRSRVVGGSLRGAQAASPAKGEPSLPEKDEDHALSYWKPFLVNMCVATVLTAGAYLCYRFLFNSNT

[3] = tested on: PC-3; assay: Antiproliferative activity against human PC-3 cells assessed as inhibition of cell growth measured after 24 hrs by MTT assay; assay type: functional, cell-based; conditions: PC-3, 24 h
[4] = tested on: DU-145; assay: Antiproliferative activity against human DU-145 cells assessed as inhibition of cell growth measured after 24 hrs by MTT assay; assay type: functional, cell-based; conditions: DU-145, 24 h
[5] = Antiproliferative activity against human RWPE-1 cells assessed as inhibition of cell growth measured after 24 hrs by MTT assay; assay type: toxicity, cell-based
[6] = tested on: Escherichia coli; assay: Antimicrobial activity against Escherichia coli NCTC 8196 assessed as reduction in microbial growth measured fro 18 hrs by two-fold serial dilution method; assay type: functional
[7] = tested on: Escherichia coli; assay: Antibacterial activity against Escherichia coli ATCC 25922 assessed as reduction in microbial growth by incubated for 18 hrs CLSI based broth microdilution method; assay type: functional
[8] = tested on: Staphylococcus epidermidis; assay: Antibacterial activity against Staphylococcus epidermidis ATCC 12228 assessed as reduction in microbial growth by incubated for 18 hrs CLSI based broth microdilution method; assay type: functional
[9] = tested on: HUVEC; assay: Antiproliferative activity against HUVEC cells assessed as inhibition of cell proliferation incubated for 72 hrs by Cell Titer Luminescence assay; assay type: functional, cell-based; conditions: Homo sapiens
[10] = tested on: HepG2; assay: Cytotoxicity against human HepG2 cells assessed as reduction in cell viability incubated for 24 hrs by MTT assay; assay type: functional, cell-based; conditions: HepG2, 24 h
[11] = tested on: MCF7; assay: Cytotoxicity against human MCF7 cells assessed as reduction in cell viability incubated for 24 hrs by MTT assay; assay type: functional, cell-based; conditions: MCF7, 24 h
[12] = tested on: PC-3; assay: Cytotoxicity against human PC-3 cells assessed as reduction in cell growth incubated for 24 hrs by MTT assay; assay type: functional, cell-based; conditions: PC-3, 24 h
[13] = tested on: CCRF-CEM; assay: Cytotoxicity against human CCRF-CEM cells assessed as reduction in cell growth at 25 uM incubated for 48 hrs by MTT assay relative to control; assay type: functional; design: scale not given: the % may be the effect or the level left
[14] = tested on: MCF7; assay: Cytotoxicity against human MCF7 cells assessed as reduction in cell growth at 25 uM incubated for 48 hrs by MTT assay relative to control; assay type: functional; design: scale not given: the % may be the effect or the level left
[15] = Antioxidant activity assessed as DPPH radical scavenging activity after 30 mins by spectrophotometric analysis; assay type: functional
[16] = tested on: Staphylococcus aureus; assay: Antibacterial activity against Staphylococcus aureus ATCC 29213 assessed as bacterial growth inhibition incubated for 24 hrs by broth dilution method; assay type: functional
[17] = tested on: Staphylococcus epidermidis; assay: Antibacterial activity against Staphylococcus epidermidis ATCC 12228 assessed as bacterial growth inhibition incubated for 24 hrs by broth dilution method; assay type: functional
[18] = tested on: Escherichia coli; assay: Antibacterial activity against Escherichia coli ATCC 25922 assessed as bacterial growth inhibition incubated for 24 hrs by broth dilution method; assay type: functional
[19] = tested on: Pseudomonas aeruginosa; assay: Antimicrobial activity against Pseudomonas aeruginosa ATCC 27853 assessed as inhibition of microbial growth incubated for 24 hrs by broth microdilution method; assay type: functional
[20] = tested on: Staphylococcus aureus; assay: Antibacterial activity against Staphylococcus aureus MTCC-96 assessed as bacterial growth inhibition after 24 hrs by broth macro dilution method; assay type: functional
[21] = tested on: Staphylococcus aureus; assay: Antibacterial activity against Staphylococcus aureus MTCC-739 assessed as bacterial growth inhibition after 24 hrs by broth macro dilution method; assay type: functional
[22] = tested on: Micrococcus luteus; assay: Antibacterial activity against Micrococcus luteus assessed as bacterial growth inhibition after 24 hrs by broth macro dilution method; assay type: functional
[23] = tested on: Escherichia coli; assay: Antibacterial activity against Escherichia coli assessed as bacterial growth inhibition after 24 hrs by broth macro dilution method; assay type: functional
[24] = tested on: Pseudomonas aeruginosa; assay: Antibacterial activity against Pseudomonas aeruginosa assessed as bacterial growth inhibition after 24 hrs by broth macro dilution method; assay type: functional
[25] = tested on: Pichia kudriavzevii; assay: Antifungal activity against Candida krusei ATCC 6258 assessed as inhibition of fungal growth incubated for 24 hrs by microtiter plate reader assay; assay type: functional
[26] = biological target: Cholinesterase (Homo sapiens, UniProt P06276); assay: Inhibition of BChE (unknown origin) using acetylthiocholine iodide as substrate preincubated for 20 mins followed by substrate addition and measured after 5 mins by Ellman's method
Cholinesterase, sequence (P06276 whole entry): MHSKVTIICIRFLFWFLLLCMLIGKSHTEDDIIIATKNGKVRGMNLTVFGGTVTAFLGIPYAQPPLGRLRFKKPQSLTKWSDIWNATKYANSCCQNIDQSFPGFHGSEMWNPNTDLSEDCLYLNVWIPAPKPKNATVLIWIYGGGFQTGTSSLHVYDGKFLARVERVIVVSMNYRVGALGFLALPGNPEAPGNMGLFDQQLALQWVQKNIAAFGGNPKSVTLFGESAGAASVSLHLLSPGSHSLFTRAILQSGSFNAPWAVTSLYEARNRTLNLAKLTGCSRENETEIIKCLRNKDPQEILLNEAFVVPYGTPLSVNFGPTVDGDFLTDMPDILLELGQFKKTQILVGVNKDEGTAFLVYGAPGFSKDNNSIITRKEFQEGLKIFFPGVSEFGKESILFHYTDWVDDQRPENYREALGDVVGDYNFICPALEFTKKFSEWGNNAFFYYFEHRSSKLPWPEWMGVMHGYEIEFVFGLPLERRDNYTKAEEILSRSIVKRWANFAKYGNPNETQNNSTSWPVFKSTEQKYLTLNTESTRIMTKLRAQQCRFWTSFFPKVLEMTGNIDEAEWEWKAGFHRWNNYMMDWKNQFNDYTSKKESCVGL

[27] = tested on: Nannizzia gypsea; assay: Antifungal activity against Microsporum gypseum assessed as reduction in fungal growth; assay type: functional
[28] = tested on: Staphylococcus aureus; assay: Antibacterial activity against Staphylococcus aureus assessed as reduction in microbial growth by CLSI based broth microdilution method; assay type: functional
[29] = tested on: Aspergillus flavus; assay: Antifungal activity against Aspergillus flavus assessed as inhibition of fungal growth; assay type: functional
[30] = Antagonist activity at NMDA receptor (unknown origin); design: species or system Homo sapiens

Type-1 angiotensin II receptor (Homo sapiens), sequence (P30556 whole entry, looked up): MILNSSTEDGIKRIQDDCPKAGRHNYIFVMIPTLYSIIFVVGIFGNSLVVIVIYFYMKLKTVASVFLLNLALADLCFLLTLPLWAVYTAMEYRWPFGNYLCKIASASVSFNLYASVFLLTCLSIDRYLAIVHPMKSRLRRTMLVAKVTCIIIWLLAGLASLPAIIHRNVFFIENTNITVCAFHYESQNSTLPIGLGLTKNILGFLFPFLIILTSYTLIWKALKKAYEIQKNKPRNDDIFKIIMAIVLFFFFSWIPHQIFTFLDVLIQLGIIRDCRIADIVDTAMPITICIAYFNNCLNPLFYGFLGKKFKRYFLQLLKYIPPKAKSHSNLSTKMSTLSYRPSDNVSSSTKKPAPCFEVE

With `O=P(O)(O)CN[C@@H](Cc1ccc(-c2ccccc2)cc1)c1nnn[nH]1` the IC50 [1] was 0.0009 µM.
Work on `OC1C2CC3CC1CC(C2)C3(Cc1nnn[nH]1)c1ccc(-c2ccc(F)cc2)cc1` (stereo not drawn) yielded an IC50 [2] of 0.0037 µM.
With `O=C1N(Cc2ccc(Br)cc2)c2ccccc2C1(O)Cc1nnn[nH]1` (stereo not drawn) the IC50 [3] was 10.1 µM, the IC50 [4] was 11.7 µM and the IC50 at 24 h [5] was 76 µM.
Work on `Cc1ccc(-n2nnnc2NCc2ccco2)cc1Cl` yielded an MIC [6] of 2 µg/mL, an MIC [7] of 2 µg/mL and an MIC [8] of 2 µg/mL.
With `Fc1ccc(-n2nnnc2NCc2ccco2)cc1Cl` the MIC [6] was 2 µg/mL, the MIC [7] was 2 µg/mL and the MIC [8] was 2 µg/mL.
Compound `CCC(C)n1ncn(-c2ccc(N3CCN(c4ccc(OC[C@@H]5CO[C@@](Cn6ncnn6)(c6ccc(Cl)cc6Cl)O5)cc4)CC3)cc2)c1=O` (stereo partly drawn) has an IC50 [9] of 0.073 µM.
Compound `Clc1ccc(-c2nnn(-c3[se]nnc3-c3ccc(Cl)cc3)n2)cc1` has an IC50 [10] of 43.2 µM and an IC50 [11] of 43.2 µM.
With `Clc1ccc(-c2nn[se]c2-n2nnc(-c3ccccc3)n2)cc1` the IC50 [10] was 43.2 µM and the IC50 [11] was 43.2 µM.
`Clc1ccc(-c2nn[se]c2-n2nnc(-c3ccccc3Cl)n2)cc1` gave an IC50 [10] of 43.2 µM and an IC50 [11] of 43.2 µM.
`O=C(O)Cn1nnc(-c2cn(-c3ccccc3)nc2-c2ccc(Cl)cc2)n1` showed an IC50 [12] of 6.43 µM.
Compound `Clc1ccccc1-c1nnnn1CCCn1cnc2c(Br)c(Br)c(Br)c(Br)c21` has an Activity [13] of less than 1% and an Activity [14] of less than 1%.
Compound `Brc1c(Br)c(Br)c2c(ncn2CCCn2nnnc2-c2ccccc2)c1Br` has an Activity [13] of less than 1% and an Activity [14] of less than 1%.
`O=S(=O)(c1ccccc1)n1nnc(CCSc2cc3ccccc3[nH]2)n1` showed an IC50 [15] of 27.63 µg/mL (≈ 71.7 µM).
`CC1=C(C)C2(C)CC1(C)C1C(=O)N(Nc3nnnn3-c3ccccc3Cl)C(=O)C12` (stereo not drawn) gave an MIC [16] of 0.4 µg/mL (≈ 0.969 µM), an MIC [17] of 0.4 µg/mL (≈ 0.969 µM) and an MIC [18] of 0.4 µg/mL (≈ 0.969 µM). The MIC [19] was 0.4 µg/mL.
Work on `Cn1ncc2cc(-n3cc(CSc4nnnn4-c4ccc(F)cc4F)nn3)ccc21` yielded an MIC [20] of 5 µg/mL (≈ 11.8 µM), an MIC [21] of 5 µg/mL (≈ 11.8 µM) and an MIC [22] of 5 µg/mL (≈ 11.8 µM). It also gave an MIC [23] of 5 µg/mL (≈ 11.8 µM) and an MIC [24] of 5 µg/mL (≈ 11.8 µM).
For `Cc1cn(C2OC(CO)CC2n2nnnc2Cc2c[nH]c3ccccc23)c(=O)[nH]c1=O` (stereo not drawn), the IC50 [15] was 25.87 µg/mL (≈ 61.1 µM).
Work on `CC1=C(C)C2(C)CC1(C)C1C(=O)N(Nc3nnnn3-c3cccc(C(F)(F)F)c3)C(=O)C12` (stereo not drawn) yielded an MIC [16] of 0.4 µg/mL (≈ 0.896 µM), an MIC [17] of 0.4 µg/mL (≈ 0.896 µM) and an MIC [18] of 0.4 µg/mL (≈ 0.896 µM). The MIC [19] was 0.4 µg/mL.
For `Cc1cn(C2OC(CO)CC2n2nnnc2-c2cccnc2Cl)c(=O)[nH]c1=O` (stereo not drawn), the IC50 [15] was 25.87 µg/mL (≈ 63.8 µM).
With `Clc1ncccc1-c1nnn[nH]1` the IC50 [15] was 27.63 µg/mL (≈ 152 µM).
Compound `Cn1ncc2cc(-n3cc(CSc4nnnn4-c4cccc(O)c4)nn3)ccc21` has an MIC [20] of 5 µg/mL (≈ 12.3 µM), an MIC [21] of 5 µg/mL (≈ 12.3 µM) and an MIC [22] of 5 µg/mL (≈ 12.3 µM). For the same compound, the MIC [23] was 5 µg/mL (≈ 12.3 µM) and the MIC [24] was 5 µg/mL (≈ 12.3 µM).
For `Fc1ccccc1-n1nnnc1NCc1ccco1`, the MIC [6] was 2 µg/mL, the MIC [7] was 2 µg/mL and the MIC [8] was 2 µg/mL.
`COc1ccc(-c2nnc(C[Se]c3nnn[nH]3)o2)cc1` gave an IC50 [15] of 27.63 µg/mL (≈ 81.9 µM).
Work on `Cn1ncc2cc(-n3cc(CSc4nnnn4-c4cccc(F)c4)nn3)ccc21` yielded an MIC [20] of 5 µg/mL (≈ 12.3 µM), an MIC [21] of 5 µg/mL (≈ 12.3 µM) and an MIC [22] of 5 µg/mL (≈ 12.3 µM). The MIC [23] was 5 µg/mL (≈ 12.3 µM) and the MIC [24] was 5 µg/mL (≈ 12.3 µM).
Compound `Cn1nnnc1SCC(=O)N1CCN(C2CCCCC2)CC1` has an MIC [25] of 3.9 µg/mL (≈ 12 µM).
`COc1ccccc1C1=C(C#N)/C(=C(/C)c2nnn[nH]2)NC(C)(c2ccccc2OC)C1` (stereo not drawn) showed an IC50 [26] of 0.29 µM.
In the case of `O=P(O)(O)CN[C@@H](Cc1ccc2oc3ccccc3c2c1)c1nnn[nH]1`, the IC50 [1] is reported as 0.006 µM.
With `Cn1ncc2cc(-n3cc(CSc4nnnn4-c4cccc([N+](=O)[O-])c4)nn3)ccc21` the MIC [20] was 5 µg/mL (≈ 11.5 µM), the MIC [21] was 5 µg/mL (≈ 11.5 µM) and the MIC [22] was 5 µg/mL (≈ 11.5 µM). For the same compound, the MIC [23] was 5 µg/mL (≈ 11.5 µM), the MIC [24] was 5 µg/mL (≈ 11.5 µM) and the MIC [27] was 11 µg/mL (≈ 25.3 µM).
Compound `CC1=C(C)C2(C)CC1(C)C1C(=O)N(Nc3nnnn3-c3ccccc3Br)C(=O)C12` (stereo not drawn) has an MIC [16] of 0.4 µg/mL (≈ 0.875 µM), an MIC [17] of 0.4 µg/mL (≈ 0.875 µM) and an MIC [18] of 0.4 µg/mL (≈ 0.875 µM). It also gave an MIC [19] of 0.4 µg/mL and an MIC [28] of 0.1 µg/mL.
In the case of `COc1ccc(-n2nnnc2SCc2cn(-c3ccc4c(cnn4C)c3)nn2)cc1`, the MIC [29] is reported as 10 µg/mL (≈ 23.8 µM).
`C1=C(c2nnn(Cc3cn(Cc4ccccc4)nn3)n2)COc2ccccc21` gave an IC50 [15] of 27.63 µg/mL (≈ 74.4 µM).
In the case of `O=C(O)[C@H]1C[C@@H](Cc2nnn[nH]2)CCN1` (single isomer, unassigned), the IC50 [30] is reported as 0.1 µM.
`COc1cccc2c1C(=O)c1c(O)c3c(c(O)c1C2=O)C[C@@](O)(C(=O)CO)C[C@@H]3O[C@H]1C[C@H](N)[C@H](O)[C@H](C)O1` [DOXORUBICIN] gave an IC50 [12] of 2.24 µM.
In the case of `OC(Cn1cncn1)(Cn1cncn1)c1ccc(F)cc1F` [FLUCONAZOLE], the MIC [25] is reported as 7.8 µg/mL (≈ 25.5 µM).
With `CO/N=C1\CN(c2nc3c(cc2F)c(=O)c(C(=O)O)cn3C2CC2)CC1CN` (stereo not drawn) [GEMIFLOXACIN] the MIC [23] was 10 µg/mL (≈ 25.7 µM) and the MIC [24] was 10 µg/mL (≈ 25.7 µM).
For `CCC(C)n1ncn(-c2ccc(N3CCN(c4ccc(OCC5COC(Cn6cncn6)(c6ccc(Cl)cc6Cl)O5)cc4)CC3)cc2)c1=O` (stereo not drawn) [ITRACONAZOLE], the MIC [27] was 10 µg/mL (≈ 14.2 µM) and the MIC [29] was 8 µg/mL (≈ 11.3 µM).
`C[C@@H](c1ncncc1F)[C@](O)(Cn1cncn1)c1ccc(F)cc1F` [VORICONAZOLE] gave an MIC [25] of 3.9 µg/mL (≈ 11.2 µM).

Source: ChEMBL document CHEMBL6127075, “Tetrazoles: A multi-potent motif in drug design” (Eur J Med Chem, 2024)
